Results from ChEMBL document CHEMBL1201862, “PubChem BioAssay data set” (2004).
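Interpolation was linear, between the two tested concentrations surrounding the appropriate level; five concentrations were tested over 48 hours in 96-well plates. GI50: concentration for 50% inhibition of growth.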 Active and inactive are the calls of the source. Cut-off read from the data, not from the text of the source: active = GI50 up to about 1.1 µM and inactive = higher.

Assays:
Test in all cases: NCI anticancer screen, dose series, 48 h
[1] = test system: NCI-H226
[2] = test system: EKVX
[3] = test system: SK-MEL-2
[4] = test system: UACC-257
[5] = test system: SK-MEL-28
[6] = test system: MOLT-4
[7] = test system: U-251
[8] = test system: UO-31
[9] = test system: MCF7
[10] = test system: HOP-92
[11] = test system: SW-620
[12] = test system: A498
[13] = test system: SK-MEL-5
[14] = test system: PC-3
[15] = test system: HT-29
[16] = test system: M14
[17] = test system: NCI-H522
[18] = test system: HCT-116
[19] = test system: T47D
[20] = test system: K562
[21] = test system: CCRF-CEM
[22] = test system: MDA-MB-231
[23] = test system: RXF 393
[24] = test system: TK-10
[25] = test system: UACC-62
[26] = test system: NCI-H23
[27] = test system: MDA-MB-435
[28] = test system: A549
[29] = test system: OVCAR-8
[30] = test system: NCI/ADR-RES
[31] = test system: HOP-62
[32] = test system: BT-549
[33] = test system: MDA-N
[34] = test system: OVCAR-5
[35] = test system: SR
[36] = test system: SF-539
[37] = test system: RPMI-8226
[38] = test system: DU-145
[39] = test system: SNB-19
[40] = test system: SNB-75
[41] = test system: NCI-H460
[42] = test system: HL-60
[43] = test system: KM12
[44] = test system: OVCAR-3
[45] = test system: SN12C
[46] = test system: Hs-578T
[47] = test system: CAKI-1
[48] = test system: LOX IMVI
[49] = test system: 786-0
[50] = test system: SK-OV-3
[51] = test system: HCT-15
[52] = test system: SF-295
[53] = test system: IGROV-1
[54] = test system: ACHN
[55] = test system: HCC 2998
[56] = test system: COLO 205
[57] = test system: OVCAR-4
[58] = test system: M19-MEL
[59] = test system: SNB-78
[60] = test system: SF-268
[61] = test system: LXFL 529
[62] = test system: DLD-1
[63] = test system: Malme-3M

C/C=C(\C)C(=O)OC1C(C)=C2C(C1OC(=O)CCCC)C(C)(OC(C)=O)CC(OC(=O)CCCC)C1(O)C2OC(=O)C1(C)O (stereo unspecified)
GI50 [1]: 1190 nM (inactive) | GI50 [2]: 8220 nM (inactive) | GI50 [3]: 480 nM (active) | GI50 [4]: 9460 nM (inactive) | GI50 [5]: 893 nM (active) | GI50 [6]: 1460 nM (inactive) | GI50 [7]: 605 nM (active) | GI50 [8]: 15400 nM (inactive) | GI50 [9]: 394 nM (active) | GI50 [10]: 746 nM (active) | GI50 [11]: 501 nM (active) | GI50 [12]: 6470 nM (inactive) | GI50 [13]: 1730 nM (inactive) | GI50 [14]: 491 nM (active) | GI50 [15]: 736 nM (active) | GI50 [16]: 452 nM (active) | GI50 [17]: 362 nM (active) | GI50 [18]: 525 nM (active) | GI50 [19]: 6700 nM (inactive) | GI50 [20]: 2200 nM (inactive) | GI50 [21]: 1740 nM (inactive) | GI50 [22]: 625 nM (active) | GI50 [23]: 598 nM (active) | GI50 [24]: 13000 nM (inactive) | GI50 [25]: 1570 nM (inactive) | GI50 [26]: 1140 nM (inactive) | GI50 [27]: 501 nM (active) | GI50 [28]: 1030 nM (active) | GI50 [29]: 4430 nM (inactive) | GI50 [30]: 36900 nM (inactive) | GI50 [31]: 431 nM (active) | GI50 [32]: 8710 nM (inactive) | GI50 [33]: 437 nM (active) | GI50 [34]: 2210 nM (inactive) | GI50 [35]: 951 nM (active) | GI50 [36]: 944 nM (active) | GI50 [37]: 267 nM (active) | GI50 [38]: 3710 nM (inactive) | GI50 [39]: 410 nM (active) | GI50 [40]: 828 nM (active) | GI50 [41]: 792 nM (active) | GI50 [42]: 32.4 nM (active) | GI50 [43]: 776 nM (active) | GI50 [44]: 925 nM (active) | GI50 [45]: 2590 nM (inactive) | GI50 [46]: 625 nM (active) | GI50 [47]: 5130 nM (inactive) | GI50 [48]: 439 nM (active) | GI50 [49]: 982 nM (active) | GI50 [50]: 4110 nM (inactive) | GI50 [51]: 21000 nM | GI50 [52]: 802 nM (active) | GI50 [53]: 6850 nM (inactive) | GI50 [54]: 4800 nM (inactive) | GI50 [55]: 3240 nM (inactive) | GI50 [56]: 891 nM (active) | GI50 [57]: 1860 nM (inactive)

CCOC(=O)N1CCC(N[C@@H]2c3cc4c(cc3[C@@H](c3cc(OC)c(O)c(OC)c3)[C@H]3C(=O)OC[C@@H]32)OCO4)CC1
GI50 [2]: 1970 nM (inactive) | GI50 [3]: 6030 nM (inactive) | GI50 [4]: 6550 nM (inactive) | GI50 [5]: 9290 nM (inactive) | GI50 [7]: 1000 nM (active) | GI50 [8]: 1080 nM (active) | GI50 [10]: 895 nM (active) | GI50 [11]: 2190 nM (inactive) | GI50 [12]: 262 nM (active) | GI50 [13]: 1120 nM (active) | GI50 [15]: 2630 nM (inactive) | GI50 [16]: 1500 nM (inactive) | GI50 [58]: 2070 nM (inactive) | GI50 [18]: 2700 nM (inactive) | GI50 [20]: 2000 nM (inactive) | GI50 [21]: 465 nM (active) | GI50 [59]: 16000 nM (inactive) | GI50 [25]: 771 nM (active) | GI50 [60]: 2730 nM (inactive) | GI50 [26]: 501 nM (active) | GI50 [29]: 2180 nM (inactive) | GI50 [31]: 853 nM (active) | GI50 [61]: 6780 nM (inactive) | GI50 [39]: 1050 nM (active) | GI50 [40]: 2180 nM (inactive) | GI50 [41]: 35.2 nM (active) | GI50 [62]: 6680 nM (inactive) | GI50 [43]: 2070 nM (inactive) | GI50 [44]: 6120 nM (inactive) | GI50 [47]: 647 nM (active) | GI50 [48]: 1010 nM (active) | GI50 [49]: 764 nM (active) | GI50 [63]: 1790 nM (inactive) | GI50 [50]: 966 nM (active) | GI50 [51]: 771 nM | GI50 [52]: 597 nM (active) | GI50 [53]: 2950 nM (inactive) | GI50 [54]: 289 nM (active) | GI50 [56]: 6000 nM (inactive)
